Measured values as given in patent publication US6902901B2, “Polypeptides useful for diagnosis of Aspergillus fumigatus and a process of preparing the same” (Council of Scientific and Industrial Research, priority 1998, dated 2005).

How the values were obtained:
[1] = tested on: mixture of A. fumigatus allergens/antigens and purified 18 kD allergen/antigen; assay: Intraperitoneal immunisation of mice with peptide, serum IgG ELISA; format: in vivo, BALB/c mice; conditions: Immunised mice; 300 ug peptide i.p. with Freund's incomplete adjuvant; serum 30 days after immunization
Method: Each synthetic peptide (300 ug/150 ul saline) was emulsified with an equal volume of Freund's incomplete adjuvant and used for intraperitoneal immunisation of 3 BALB/c mice. IgG antibodies in the serum collected from these mice 30 days after immunization bound with mixture of A. fumigatus allergens/antigens and purified 18 kD allergen/antigen in ELISA.

[2] = tested on: sensitised mast cells of ABPA patients; assay: Histamine release from heparinised whole blood incubated with peptides; format: cell-based, human; conditions: 30 min at 37° C.
Method: Whole blood (heparinised) was incubated with the peptides for 30 min at 37° C. in polystyrene plates followed by centrifugation and collection of supernatants. The supernatants were acylated and were assayed for acylated histamine by histamine assay kit (Immunotech International).

[3] = tested on: Peripheral blood lymphocytes (PBL); assay: Cytokine analysis of PBMC supernatants incubated with peptides; format: cell-based, human; conditions: PBMC supernatant, 6 days culture with peptide
Method: Peripheral blood lymphocytes (PBL) from healthy donors and aspergillosis patients were fractionated and 2×10^6 cells/well were cultured in presence or absence of synthetic peptides for 6 days in RPMI 1640 medium with 10% autologous serum. The supernatant medium was collected for cytokine analysis and 0.5 mg/ml solution of MTT was added to each well for 30 min. before harvesting cultures with acidified isopropanol. Absorbance was measured at 590 nm.

[4] = tested on: A. fumigatus specific IgE antibodies in sera; assay: ELISA of peptide-coated plates with human sera, specific IgE binding
Method: Sera derived from 25 healthy persons and 30 culture proven allergic bronchopulmonary aspergillosis patients were probed with synthetic peptides of the present invention for A. fumigatus specific antibodies. NUNC ELISA plates were coated with 0-1 ug/ml of peptide in carbonate-bicarbonate buffer, 0.01 M, pH 9.6 for 2 h at 37° C. The unreacted sites were blocked with bovine serum albumin in phosphate buffered saline, 0.01 M, pH 7.4. Diluted sera (1:100) of patients or healthy controls was added to the wells and Incubated for 3 h at 37° C. […]

[5] = tested on: A. fumigatus specific IgG antibodies in sera; assay: ELISA of peptide-coated plates with human sera, specific IgG binding; conditions: diluted 1:100
Method: Sera derived from 25 healthy persons and 30 culture proven allergic bronchopulmonary aspergillosis patients were probed with synthetic peptides of the present invention for A. fumigatus specific antibodies. NUNC ELISA plates were coated with 0-1 ug/ml of peptide in carbonate-bicarbonate buffer, 0.01 M, pH 9.6 for 2 h at 37° C. The unreacted sites were blocked with bovine serum albumin in phosphate buffered saline, 0.01 M, pH 7.4. Diluted sera (1:100) of patients or healthy controls was added to the wells and Incubated for 3 h at 37° C. Washed plates received anti-human IgG-HRP conjugate for 1.5 h at 37° C. washed plates were then assayed with o-phenylene diamine substrate and read at 492 nm.

| Substance | Absorbance at 490 nm, specific IgG antibodies in mice [1] | Histamine released ([2]; Normal whole blood) [nM] | Histamine released ([2]; Patient (ABPA) whole blood) [nM] | IL-2 [3] [pg/mL] | IL-4 [3] [pg/mL] | IL-6 [3] [pg/mL] | IL-10 [3] [pg/mL] | gamma-IFN [3] [pg/mL] | Absorbance at 490 nm, Specific IgE ([4]; Normal sera) | Absorbance at 490 nm, Specific IgE ([4]; Patient sera (ABPA)) | Absorbance at 490 nm, Specific IgG ([5]; Normal sera) | Absorbance at 490 nm, Specific IgG ([5]; Patient sera (ABPA)) |
| --- | --- | --- | --- | --- | --- | --- | --- | --- | --- | --- | --- | --- |
| INQQLNPK (listed as Aspergillus fumigatus) [pep 3, 8 aminoacids peptide, aa 6-14 (also printed aa 6-13) of the 18 kD allergen/antigen] | 0.434 | 65 | 369 | 80 | 92 | 620 | 220 | 168 | 0.042 | 0.256 | 0.011 | 0.674 |
| INQQLNPKTNKWEDK (listed as Aspergillus fumigatus) [pep 4, 15 aminoacids peptide, aa 6-20 of the 18 kD allergen/antigen] | 0.526 | 58 | 392 | 400 | 28 | 120 | 40 | 520 | 0.028 | 0.235 | 0.006 | 0.845 |
| LNPKTNKWEDK (listed as Aspergillus fumigatus) [pep 2, 11 aminoacids peptide, aa 10-20 of the 18 kD allergen/antigen] | 0.636 | 82 | 402 | 280 | 48 | 140 | 80 | 320 | 0.039 | 0.473 | 0.09 | 0.852 |
| LNPKTNKWEDKRY [pep 6] | 0.547 | 62 | 278 | 120 | 62 | 760 | 340 | 240 | 0.033 | 0.145 | 0.004 | 0.828 |
| TNKWEDK [pep 5] | 0.498 | 43 | 356 | 260 | 24 | 180 | 36 | 660 | 0.032 | 0.208 | 0.012 | 0.850 |
